Data published in PMC12628652, “A Validated UPLC‐MS/MS Method for Monitoring Temozolomide and Perillyl Alcohol Metabolites in Biological Matrices: Insights From a Preclinical Pharmacokinetic Study” (Biomedical Chromatography, 2025).

How the values were obtained:
[1] = Stability of analytes in rat plasma and tissue matrices (freeze-thaw, bench-top, autosampler); assay type: physicochemical; settings: for Stability (ER %) Autosampler: 10°C for 24 h; for Stability (ER %) Bench-top: room temperature for 6 h; for Stability (ER %) Freeze/thaw: three freeze–thaw cycles over 24-h intervals
Experimental: QC samples were prepared by spiking blank rat plasma with PA, AIC, and TMZ at three concentration levels: 30, 80, and 200 ng/mL. Internal standards (IS1 and IS2) were added to each sample at a final concentration of 100 ng/mL. Whole blood was obtained from untreated anesthetized rats that were euthanized as part of the study protocol. Blood samples were collected into heparinized tubes and centrifuged at 3500 rpm for 10 min at 20°C to separate plasma. Organs including the brain, lungs, kidneys, spleen, and liver were promptly excised and homogenized using a Marconi mechanical tissue homogenizer (5 mm probe) in phosphate‐buffered saline (PBS, pH 7.4) at a 1:5 (w/v) tissue‐to‐buffer ratio.
For each matrix sample, 50 μL of homogenate or plasma was mixed with 50 μL of internal standard (IS) solution (100 ng/mL), followed by the addition of the respective working solution to reach the target analyte concentration. The volume was adjusted to 1 mL using an appropriate solvent mixture. Samples were centrifuged again at 3500 rpm for 10 min at 4°C. The resulting supernatants were filtered through 0.22 μm membrane filters prior to chromatographic analysis. All calibration standards and QC samples were prepared freshly on the day of analysis to minimize analyte degradation.
The stability of PA, AIC, and TMZ in rat plasma was assessed under the following conditions using low, medium, and high QC levels: (1) Freeze–thaw stability: Three freeze–thaw cycles over 24‐h intervals; (2) Bench‐top stability: Storage at room temperature for 6 h; (3) Autosampler stability: Storage at 10°C for 24 h. Analytes were considered stable if the relative error (RE%) remained within ±15% (Tiwari and Tiwari [2010]).

[2] = Pharmacokinetic study in rats after single oral administration of POH and TMZ (plasma, UPLC-MS/MS); assay type: in vivo, Male Wistar rats; settings: rat plasma
Experimental: Approximately 200 μL of whole blood was collected from the tail vein of each rat. Samples were centrifuged at 3500 rpm for 10 min at 20°C to separate the plasma. Plasma samples were then subjected to liquid–liquid extraction with ACN. The mixture was centrifuged again at 3500 rpm for 10 min at 4°C. The resulting supernatant was filtered through hydrophobic 0.22 μm membranes and transferred to autosampler vials. A 2 μL aliquot of each sample was injected into the UPLC‐MS/MS system for analysis.
Thawed plasma samples (50 μL) were also prepared by protein precipitation. Each sample was mixed with 50 μL of IS solution and 900 μL of ACN, followed by centrifugation at 3500 rpm for 10 min at 20°C. The supernatants were filtered and analyzed as described. All dilutions were performed based on analyte concentration to ensure compliance with the method's validated dynamic range.
The pharmacokinetic and biodistribution study was conducted in accordance with ethical guidelines and approved by the Animal Ethics Committee of the Universidade Estadual do Centro‐Oeste, Brazil (Protocol No. 026/2023). Male Wistar rats (n = 6 for pharmacokinetics; n = 4 for biodistribution), weighing approximately 200 g, were housed under controlled environmental conditions (12 h light/dark cycle, 35% relative humidity, and temperature of 23°C ± 2°C). Animals had free access to food and water, which were withheld 10 h prior to drug administration and resumed 2 h afterward.
Each animal received a single oral dose of POH (47 mg/kg) and TMZ (2 mg/kg). For pharmacokinetic profiling, blood samples were collected via the tail vein into heparinized tubes at predefined time points: 0.5, 1, 2, 4, 8, 12, and 24 h post‐administration. For biodistribution analysis, a separate cohort of rats (n = 4) was sacrificed 4 h after dosing. Organs, including the brain, liver, lungs, kidneys, and spleen, were collected, homogenized, and stored at −20°C for subsequent quantification, as detailed in Section 3.2.
Pharmacokinetic parameters were calculated using non‐compartmental analysis with the PKSolver plugin for Microsoft Excel. The following parameters were determined: area under the plasma concentration–time curve from 0 to 24 h (AUC0–24h), maximum plasma concentration (Cmax), time to reach Cmax (tmax), elimination half‐life (t1/2), volume of distribution (VD), and total clearance (CL).

[3] = rat brain homogenate, 200 ng/mL
[4] = rat kidney homogenate, 30 ng/mL
[5] = rat kidney homogenate, 80 ng/mL
[6] = rat kidney homogenate, 200 ng/mL
[7] = rat liver homogenate, 200 ng/mL
[8] = rat spleen homogenate, 30 ng/mL
[9] = rat spleen homogenate, 80 ng/mL
[10] = rat spleen homogenate, 200 ng/mL
[11] = male, Wistar, single oral dose POH 47 mg/kg and TMZ 2 mg/kg, n = 6
[12] = single oral dose POH 47 mg/kg and TMZ 2 mg/kg, n = 6

With C=C(C)[C@@H]1CC=C(C(=O)O)CC1 [PA, perillic acid] the “Stability (ER %) Autosampler” value ([1]; rat brain homogenate, 30 ng/mL) was 2.95%, the “Stability (ER %) Bench-top” value ([1]; rat brain homogenate, 30 ng/mL) was 1.28% and the “Stability (ER %) Freeze/thaw” value ([1]; rat brain homogenate, 30 ng/mL) was 1.93%. The “Stability (ER %) Autosampler” value ([1]; rat brain homogenate, 80 ng/mL) was 2.37%, the “Stability (ER %) Bench-top” value ([1]; rat brain homogenate, 80 ng/mL) was 10.03% and the “Stability (ER %) Freeze/thaw” value ([1]; rat brain homogenate, 80 ng/mL) was 7.85%. For the same compound, the “Stability (ER %) Autosampler” value [1, 3] was 4.49%, the “Stability (ER %) Bench-top” value [1, 3] was 5.74% and the “Stability (ER %) Freeze/thaw” value [1, 3] was 2.46%. For the same compound, the “Stability (ER %) Autosampler” value [1, 4] was 4.24%, the “Stability (ER %) Bench-top” value [1, 4] was 9.61% and the “Stability (ER %) Freeze/thaw” value [1, 4] was 8.61%. For the same compound, the “Stability (ER %) Autosampler” value [1, 5] was 3.42%, the “Stability (ER %) Bench-top” value [1, 5] was 7.75% and the “Stability (ER %) Freeze/thaw” value [1, 5] was 7.99%. The “Stability (ER %) Autosampler” value [1, 6] was 3.31%, the “Stability (ER %) Bench-top” value [1, 6] was 1.36% and the “Stability (ER %) Freeze/thaw” value [1, 6] was 1.82%. The “Stability (ER %) Autosampler” value ([1]; rat liver homogenate, 30 ng/mL) was 5.04%, the “Stability (ER %) Bench-top” value ([1]; rat liver homogenate, 30 ng/mL) was 1.59% and the “Stability (ER %) Freeze/thaw” value ([1]; rat liver homogenate, 30 ng/mL) was 1.52%. For the same compound, the “Stability (ER %) Autosampler” value ([1]; rat liver homogenate, 80 ng/mL) was 2.92%, the “Stability (ER %) Bench-top” value ([1]; rat liver homogenate, 80 ng/mL) was 2.49% and the “Stability (ER %) Freeze/thaw” value ([1]; rat liver homogenate, 80 ng/mL) was 3.24%. For the same compound, the “Stability (ER %) Autosampler” value [1, 7] was 4.45%, the “Stability (ER %) Bench-top” value [1, 7] was 0.42% and the “Stability (ER %) Freeze/thaw” value [1, 7] was 2.39%. The “Stability (ER %) Autosampler” value ([1]; rat lung homogenate, 30 ng/mL) was 4.01%, the “Stability (ER %) Bench-top” value ([1]; rat lung homogenate, 30 ng/mL) was 1.39% and the “Stability (ER %) Freeze/thaw” value ([1]; rat lung homogenate, 30 ng/mL) was 2.68%. For the same compound, the “Stability (ER %) Autosampler” value ([1]; rat lung homogenate, 80 ng/mL) was 4.14%, the “Stability (ER %) Bench-top” value ([1]; rat lung homogenate, 80 ng/mL) was 2.94% and the “Stability (ER %) Freeze/thaw” value ([1]; rat lung homogenate, 80 ng/mL) was 4.23%. For the same compound, the “Stability (ER %) Autosampler” value ([1]; rat lung homogenate, 200 ng/mL) was 3.04%, the “Stability (ER %) Bench-top” value ([1]; rat lung homogenate, 200 ng/mL) was 8.02% and the “Stability (ER %) Freeze/thaw” value ([1]; rat lung homogenate, 200 ng/mL) was 6.65%. The “Stability (ER %) Autosampler” value ([1]; rat plasma, 30 ng/mL) was 10.61%, the “Stability (ER %) Bench-top” value ([1]; rat plasma, 30 ng/mL) was 5.32% and the “Stability (ER %) Freeze/thaw” value ([1]; rat plasma, 30 ng/mL) was 1.26%. The “Stability (ER %) Autosampler” value ([1]; rat plasma, 80 ng/mL) was 14.01%, the “Stability (ER %) Bench-top” value ([1]; rat plasma, 80 ng/mL) was 11.90% and the “Stability (ER %) Freeze/thaw” value ([1]; rat plasma, 80 ng/mL) was 8.67%. For the same compound, the “Stability (ER %) Autosampler” value ([1]; rat plasma, 200 ng/mL) was 3.21%, the “Stability (ER %) Bench-top” value ([1]; rat plasma, 200 ng/mL) was 13.82% and the “Stability (ER %) Freeze/thaw” value ([1]; rat plasma, 200 ng/mL) was 4.45%. The “Stability (ER %) Autosampler” value [1, 8] was 3.25%, the “Stability (ER %) Bench-top” value [1, 8] was 2.55% and the “Stability (ER %) Freeze/thaw” value [1, 8] was 2.72%. The “Stability (ER %) Autosampler” value [1, 9] was 2.24%, the “Stability (ER %) Bench-top” value [1, 9] was 6.84% and the “Stability (ER %) Freeze/thaw” value [1, 9] was 5.52%. For the same compound, the “Stability (ER %) Autosampler” value [1, 10] was 3.41%, the “Stability (ER %) Bench-top” value [1, 10] was 9.57% and the “Stability (ER %) Freeze/thaw” value [1, 10] was 8.51%. It also gave a Tmax ([2]; male, Wistar, single oral dose POH 47 mg/kg) of no more than 30 min, a Cmax [2, 11] of 704 ng/mL and a Tmax [2, 11] of 30 min. For the same compound, the half-life [2, 11] was 1140 min, the k el [2, 11] was 1e-05 s⁻¹ and the AUC(0-t) ([2]; male, Wistar, single oral dose POH 47 mg/kg and TMZ 2 mg/kg, n = 6, read-out: AUC0–24h) was 2200 ng·h/mL. For the same compound, the CL [2, 12] was 0.23 L/h/kg and the Vd [2, 12] was 6.26 L/kg.
